Measurements as given in doi:10.1101/2025.05.21.654962v1 (biorxiv, 2025).
pIC50: −log10 of the molar value.

Columns and labels:
[1] = biological target: T1, NgUPPS (undecaprenyl diphosphate synthase) (Neisseria gonorrhoeae, UniProt Q5F5X2); experiment: crystal structure; type: binding
T1 sequence (Q5F5X2 1-248): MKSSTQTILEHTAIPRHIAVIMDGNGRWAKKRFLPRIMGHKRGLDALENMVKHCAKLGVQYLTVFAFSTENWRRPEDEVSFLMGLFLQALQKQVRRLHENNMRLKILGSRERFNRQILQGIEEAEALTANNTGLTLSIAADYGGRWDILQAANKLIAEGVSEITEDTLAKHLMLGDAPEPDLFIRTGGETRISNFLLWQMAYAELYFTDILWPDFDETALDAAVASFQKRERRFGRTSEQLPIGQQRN

[2] = biological target: T1, NgUPPS (undecaprenyl diphosphate synthase); experiment: pyrophosphatase-coupled phosphate release, Biomol Green; type: biochemical

## OCc1ccccc1Cl [PS-5485]
[1]; region 1
  crystal structure (soaking); WAC-MS hit: 9OHB (PS-5485)

## O=C(O)c1ccc(C(F)(F)F)cn1 [FC-0609]
[1]; region 4
  crystal structure (soaking); WAC-MS hit: 9OJA (FC-0609)

## Clc1ccc2nc(N3CCNCC3)sc2c1 [PS-0394]
[1]; region 3, code printed PS-0394 with the PDB id but PS-3094
  crystal structure (soaking); WAC-MS hit: 9OJB (PS-0394)

## Nc1cc(-c2ccc(C(F)(F)F)cc2)no1 [DA-0854]
[1]; region 4 (distal end of tunnel)
  crystal structure (soaking); WAC-MS hit: 9OJ1 (DA-0854)

## Cc1ccc(O)c(-c2cc[nH]n2)c1 [BA-0843]
[1]; region 3
  crystal structure (soaking); WAC-MS hit: 9OHP (BA-0843)

## Brc1ccsc1-c1ccn[nH]1 [4W-0801]
[1]; region 3 (hydrophobic core)
  crystal structure (soaking); WAC-MS hit: 9OIV (4W-0801)

## O=C(Nc1cccc(Oc2ccc(C(=O)O)c(C(=O)O)c2)c1)c1ccc(-c2ccccc2)cc1 [compound 10, 4-{3-[(biphenyl-4-ylcarbonyl)amino]phenoxy}benzene-1,2-dicarboxylic acid]
[2]
  pIC50: 5.47

## Brc1ccc(-c2cc[nH]n2)s1 [PS-4845]
[1]; region 3
  crystal structure (soaking); WAC-MS hit: 9OI5 (PS-4845)

## O=C(O)c1cc(C(F)(F)F)ccn1 [FD-0739]
[1]; region 2
  crystal structure (soaking); WAC-MS hit: 9OI6 (FD-0739)

## Cc1nonc1CO [PS-5549]
[1]; region 1, two sites
  crystal structure (soaking); WAC-MS hit: 9OHI (PS-5549)

## O=C(O)c1cn2cc(Cl)ccc2n1 [4R-0623]
[1]; region 1, two sites
  crystal structure (soaking); WAC-MS hit: 9OHJ (4R-0623)

## Nc1cc(-c2cccc(C(F)(F)F)c2)no1 [DA-0841]
[1]; region 2
  crystal structure (soaking); WAC-MS hit: 9OIY (DA-0841)

## O=C(O)c1ncccc1F [GF-0701]
[1]; region 1, two sites
  crystal structure (soaking); WAC-MS hit: 9OIW (GF-0701)

## OCc1cccs1 [PS-5570]
[1]; region 1, two sites
  crystal structure (soaking); WAC-MS hit: 9OHG (PS-5570)

## NCc1cccc(O)c1 [PS-3756]
[1]; region 1
  crystal structure (soaking); WAC-MS hit: 9OHO (PS-3756)

## O=C(O)c1ccc(Br)cn1 [5Br-P]
[1]; region 2
  crystal structure (soaking); WAC-MS hit: 9OJE (5Br-P)
